Square brackets hold non-standard residues; d marks the D form. Peptide text beside a SMILES is read from it. Nspe = C[C@H](NCC(=O)O)c1ccccc1; Nlys = NCCCCNCC(=O)O
Key:
MTS assay, NIH 3T3 cells = assay type: cell-based, mouse; conditions: NIH 3T3 fibroblast cells; Table 6; 50% inhibitory dose against NIH 3T3 mouse fibroblast cells; read-out: ID50
Outline: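 NIH/3T3 cells seeded at 5,000 per well, grown a day in DMEM with 10% FBS, then washed and exposed to serially diluted peptoid in HBSS together with MTS reagent. Absorbance at 490 nm read after 3 hours at 37 °C as a measure of metabolic activity; mean of six replicates.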

[1] = system: both strains of E. faecalis; assay type: cell-based; conditions: text summary of Table 7A
Description: The activities of ampetoids tested against BSL2 Gram-positive strains, however, compared very favorably to those of pexiganan.
Broad-spectrum antibacterial assays. MICs of compounds were determined by microdilution procedure in Mueller-Hinton broth (MHB) in accordance with CLSI M7-A6 protocols in a manner similar to that described for the screen antibacterial assays. Inoculated microtiter plates were incubated at 35° C. for 24 hours prior to the result being recorded. Four ATCC strains that were used as standards are recommended by CLSI: Pseudomonas aeruginosa ATCC 27853, Escherichia coli ATCC 25922, Staphylococcus aureus ATCC 29213 and Enterococcus faecalis ATCC 29212. Other strains from the ATCC collection include Proteus vulgaris ATCC 49132, Proteus mirabilis ATCC 35659, Klebsiella pneumoniae ATCC 33495, Enterobacter aerogenes ATCC 35029 and Serratia marcescens ATCC 13880. S. aureus NRS100 (COL) is a well characterized methicillian-resistant S. aureus (MRSA) strain. The strains S. aureus VAN1 and S. aureus VAN2, vancomycin-resistant MRSA strains that were isolated in Michigan and Pennsylvania, were the first vancomycin-resistant strains clinically isolated. S. aureus NRS 119 and S. aureus NRS 120 are linezolid-resistant isolates from the Network on Antimicrobial Resistance in S. aureus (NARSA) collection. […]

E. coli ATCC 35218 = assay type: cell-based; conditions: Table 8; CAMHB
[2] = system: Staphyloccus aureus (ATCC #25923); test: Murine intraperitoneal infection model; assay type: in vivo; conditions: mouse, S. aureus I.P., 4 mg/kg peptoid I.P.; eleven mice for 1-Nhis6,12
Description: Using a murine peritoneal injection mouse model, the ability of peptoids to treat infection was evaluated in vivo. The results from three separate studies of peptoid 1 and two of peptoid 1-Nhis6,12 against saline treated controls are shown in FIG. 7. The horizontal line represents the geometric mean of each population.
Murine intraperitoneal infection model. Bacteria was prepared by inoculating 5 mL of MHB with a single colony of Staphyloccus aureus (ATCC #25923) from a freshly streaked plate and grown overnight at 37 C. The following morning, the bacteria was subcultured by diluting 1/3 in MHB and grown for approximately 1 .5 hours. The bacteria were then diluted 10-fold in a 5% mucin in PBS solution and thoroughly mixed. A sample was reserved to later determine the amount of bacteria the mice received.
Mice were weighed, marked, and injected I.P. with 200 uL of S. aureus inoculum. Four hours post infection, mice were treated I.P. with 4 mg/kg peptoid (˜100 ug per mouse). The infection is allowed to proceed overnight. Mice were euthanized by CO2 asphyxiation after 24 hours, and the peritoneal cavity was exposed and lavaged with 5 mL PBS. The lavage was mixed and reserved on ice until plating. The lavages were diluted to 10^−5 (in1/10 increments) in PBS, and all dilutions were plated onto MH agar, in duplicate. 50 uL of lavage was spot plated, allowed to dry, and incubated overnight at 37° C. Colonies were counted the following day, and the CFU/ml of each sample was calculated. Plates that had too many colonies to count were assigned an arbitrary number of 1000 colonies.

human erythrocytes = test: Hemolysis assay; assay type: cell-based
Outline: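 Heparinised fresh human erythrocytes, 20 vol % in PBS pH 7.4, mixed 1:1 with 1:2 serially diluted peptoid and incubated 1 h at 37 °C. PBS alone as 0% and 0.2 vol % Triton X-100 as 100% hemolysis; after 1200 g spin for 15 min, supernatant A350 read.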

Q: Which results are given for `C[C@@H](c1ccccc1)N(CC(N)=O)C(=O)CN(C(=O)CN(CCCCN)C(=O)CN(C(=O)CN(C(=O)CN(CCCCN)C(=O)CN(C(=O)CN(C(=O)CN(CCCCN)C(=O)CN(C(=O)CN(C(=O)CNCCCCN)[C@@H](C)c1ccccc1)[C@@H](C)c1ccccc1)[C@@H](C)c1ccccc1)[C@@H](C)c1ccccc1)[C@@H](C)c1ccccc1)[C@@H](C)c1ccccc1)[C@@H](C)c1ccccc1` [compound 1, H-(NLys-Nspe-Nspe)4-NH2] (H-[Nlys][Nspe][Nspe][Nlys][Nspe][Nspe][Nlys][Nspe][Nspe][Nlys][Nspe][Nspe]-NH2)?
A: CC50 at 3 h (MTS assay, NIH 3T3 cells): 5.1 µM; MIC, range over both strains of E. faecalis [1]: 4 to 8 µg/mL; MIC for E. coli ATCC 35218 (E. coli ATCC 35218): 6.3 µM; mice that died prematurely during the exposure period [2]: no mice; HD10 (human erythrocytes; Table 6, 10% hemolytic dose): 21 µM; HD10 (human erythrocytes; Table 8): 14 µM; HD50 (human erythrocytes; Table 8): 63 µM
